What was measured:
[1] = biological target: T1, hMeprin α (Homo sapiens, UniProt Q16819); experiment: Enzymatic assay, quenched peptide substrate cleavage, method B; type: biochemical; conditions: geometric mean (geometric SD factor in parentheses); for Ki: Morrison's equation, read-out: Meprin alpha Ki(app); for IC50: read-out: Meprin alpha IC50
T1 sequence (Q16819 66-746): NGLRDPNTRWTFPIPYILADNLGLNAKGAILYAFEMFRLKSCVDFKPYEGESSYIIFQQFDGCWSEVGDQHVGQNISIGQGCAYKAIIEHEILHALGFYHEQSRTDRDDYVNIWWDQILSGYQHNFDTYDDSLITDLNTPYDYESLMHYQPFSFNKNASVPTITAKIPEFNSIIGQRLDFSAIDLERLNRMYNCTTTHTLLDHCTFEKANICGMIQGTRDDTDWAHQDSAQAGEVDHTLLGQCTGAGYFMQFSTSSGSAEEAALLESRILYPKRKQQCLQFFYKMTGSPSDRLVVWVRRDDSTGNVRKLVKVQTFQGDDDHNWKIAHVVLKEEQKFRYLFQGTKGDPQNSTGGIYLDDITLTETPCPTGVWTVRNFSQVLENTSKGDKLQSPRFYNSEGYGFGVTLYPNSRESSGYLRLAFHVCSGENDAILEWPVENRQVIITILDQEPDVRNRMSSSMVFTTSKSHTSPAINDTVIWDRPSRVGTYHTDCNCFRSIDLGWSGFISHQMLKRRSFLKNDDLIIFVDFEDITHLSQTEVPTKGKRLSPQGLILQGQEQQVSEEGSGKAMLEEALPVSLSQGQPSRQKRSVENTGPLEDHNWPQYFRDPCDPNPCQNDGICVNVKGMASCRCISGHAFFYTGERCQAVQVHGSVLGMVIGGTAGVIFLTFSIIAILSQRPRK
Experimental: (§1) The determination of enzymatic activity was based on the cleavage of internally quenched peptide substrates. A typical assay of 250 μl total volume measured in black 96 well plates consisted of 100 μl buffer, 50 μl enzyme at a final concentration of 5e-8 M to 2e-10 M, 50 μl substrate (0.15 to 80 μM, in buffer, 0.5% DMSO) and 50 μl inhibitor solution (in buffer, 1% DMSO). In case of 125 μl assay volume (black 96 half area well plates) all volumes were cut in half. Enzymatic activity of ADAMs was measured in 384 well plates with 60 μl total assay volume consisting of 20 μl inhibitor, 20 μl buffer, 10 μl enzyme and 10 μl substrate.
(§2) Based on method B Ki^(app) values were determined using Morrison's equation. All measurements were performed using a fluorescence plate reader (FLUOSTAR OPTIMA, BMG Labtech) at 30° C. The kinetic parameters were determined at least in duplicates on separate days. The excitation/emission wavelength was 340/420 nm. The kinetic data was evaluated using GRAFIT software (version 7.0.3, Erithacus Software).

[2] = biological target: T2, hMeprin β (Homo sapiens, UniProt Q16820); experiment: as above; type: biochemical; conditions: geometric mean (geometric SD factor in parentheses); for Ki: Morrison's equation, read-out: Meprin beta Ki(app); for IC50: read-out: Meprin beta IC50
T2 sequence (Q16820 62-701): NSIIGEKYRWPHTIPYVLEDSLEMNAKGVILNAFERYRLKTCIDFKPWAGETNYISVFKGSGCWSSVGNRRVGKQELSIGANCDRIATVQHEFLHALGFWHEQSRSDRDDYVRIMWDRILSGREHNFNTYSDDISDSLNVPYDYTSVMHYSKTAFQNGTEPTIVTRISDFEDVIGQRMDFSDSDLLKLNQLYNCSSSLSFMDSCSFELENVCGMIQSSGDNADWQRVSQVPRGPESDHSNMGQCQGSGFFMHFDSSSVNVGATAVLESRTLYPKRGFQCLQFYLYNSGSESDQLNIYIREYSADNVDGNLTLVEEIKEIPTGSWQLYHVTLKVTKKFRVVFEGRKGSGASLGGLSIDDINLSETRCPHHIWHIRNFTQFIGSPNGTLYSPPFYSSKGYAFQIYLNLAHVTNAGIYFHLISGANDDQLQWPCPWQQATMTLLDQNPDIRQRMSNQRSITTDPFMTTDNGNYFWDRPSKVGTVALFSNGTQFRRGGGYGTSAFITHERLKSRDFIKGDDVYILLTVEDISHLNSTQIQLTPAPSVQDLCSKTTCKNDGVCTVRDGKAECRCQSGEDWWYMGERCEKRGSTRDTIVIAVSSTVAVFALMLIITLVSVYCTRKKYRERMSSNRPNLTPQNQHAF
Experimental: as §1, §2

| SMILES | Ki [1] [nM] | IC50 [1] [nM] | Ki [2] [nM] | IC50 [2] [nM] |
| --- | --- | --- | --- | --- |
| O=C(Cn1c(-c2ccc(Cl)c(O)c2F)nc2cc(C(=O)O)ccc21)NO [Example 21, 2-(4-Chloro-2-fluoro-3-hydroxy-phenyl)-1-[2-(hydroxyamino)-2-oxo-ethyl]benzimidazole-5-carboxylic acid] | 435 | 443 | 119 | 125 |
| O=C(NO)C1c2ccccc2-c2[nH]nc(-c3ccccc3)c21 (centres unmarked) [Example 67, 3-Phenyl-1,4-dihydroindeno[1,2-c]pyrazole-4-carbohydroxamic acid] | 39 | 40 | 1680 | 1790 |
| O=C(Cc1c(Cc2ccccc2)n[nH]c1-c1ccccc1)NO [Example 46, 2-(3-Benzyl-5-phenyl-1H-pyrazol-4-yl)ethanehydroxamic acid] | 70 | 71 | 1730 | 1780 |
| O=C(Cc1c(-c2ccc3c(c2)OCO3)n[nH]c1-c1ccc(C(=O)O)cc1)NO [Example 62, 4-[3-(1,3-Benzodioxol-5-yl)-4-[2-(hydroxyamino)-2-oxo-ethyl]-1H-pyrazol-5-yl)benzoic acid] | 10 | 11 | 93 | 94 |
| O=C(Cc1c(-c2ccccc2)[nH]nc1[C@H]1CC[C@H](C(=O)O)CC1)NO [Example 76, trans-4-[4-[2-(Hydroxyamino)-2-oxo-ethyl]-5-phenyl-1H-pyrazol-3-yl]cyclohexanecarboxylic acid] | 12 | 12 | 98 | 98 |
| O=C(Cn1c(-c2cccc(C(=O)O)c2)nc2ccccc21)NO [Example 18, 3-[1-[2-(Hydroxyamino)-2-oxo-ethyl]benzimidazol-2-yl]benzoic acid] | 62 | 63 | 160 | 164 |
| O=C(Cc1c(-c2ccccc2)[nH]nc1[C@H]1CC[C@@H](C(=O)O)CC1)NO [Example 75, cis-4-[4-[2-(Hydroxyamino)-2-oxo-ethyl)-5-phenyl-1H-pyrazol-3-yl]cyclohexanecarboxylic acid] | 10 | 10 | 35 | 35 |
| O=C(Cc1c(-c2cccc(C(=O)O)c2)[nH]nc1[C@H]1CC[C@@H](C(=O)O)CC1)NO [Example 77, cis-3-[3-(4-carboxycyclohexyl)-4-[2-(hydroxyamino)-2-oxo-ethyl]-1H-pyrazol-5-yl]benzoic acid] | 23 | 24 | 15 | 15 |
| O=C(Cn1c(-c2ccc(Cl)c(O)c2F)nc2c(C(=O)O)cccc21)NO [Example 20, 2-(4-Chloro-2-fluoro-3-hydroxy-phenyl)-1-[2-(hydroxyamino)-2-oxo-ethyl]benzimidazole-4-carboxylic acid] | 903 | 908 | 1160 | 1190 |
| COc1ccc(-c2n[nH]c(-c3ccccc3)c2CC(=O)NO)cc1 [Example 48, 2-[3-(4-Methoxyphenyl)-5-phenyl-1H-pyrazol-4-yl]ethanehydroxamic acid] | 1 | 1 | 62 | 64 |
| O=C(Cc1c(-c2ccc3c(c2)OCO3)n[nH]c1-c1cccc(C(=O)O)c1)NO [Example 61, 3-[3-(1,3-Benzodioxol-5-yl)-4-[2-(hydroxyamino)-2-oxo-ethyl]-1H-pyrazol-5-yl)benzoic acid] | 3 | 3 | 44 | 45 |
| O=C(Cc1c(-c2ccc(Cl)c(O)c2F)n[nH]c1-c1ccc(Cl)c(O)c1F)NO [Example 60, 2-[3,5-Bis(4-chloro-2-fluoro-3-hydroxy-phenyl)-1H-pyrazol-4-yl]ethanehydroxamic acid] | 4 | 4 | 14 | 14 |
| Cc1n[nH]c(-c2ccccc2)c1CC(=O)NO [Example 44, 2-(3-Methyl-5-phenyl-1H-pyrazol-4-yl)ethanehydroxamic acid] | 302 | 310 | 2110 | 2170 |
| O=C(Cn1c(-c2ccc(C(=O)O)cc2)nc2ccccc21)NO [Example 19, 4-[1-[2-(Hydroxyamino)-2-oxo-ethyl]benzimidazol-2-yl]benzoic acid] | 71 | 75 | 119 | 127 |
| O=C(Cc1c([C@@H]2CCCC[C@@H]2C(=O)O)n[nH]c1-c1ccccc1)NO [Example 73, (1S,2R)-2-[4-[2-(Hydroxyamino)-2-oxoethyl]-5-phenyl-1H-pyrazol-3-yl]cyclohexanecarboxylic acid] | 0.26 | 0.34 | 33 | 33 |
| O=C(Cc1c(-c2ccc(C(=O)O)cc2)n[nH]c1-c1ccc(C(=O)O)cc1)NO [Example 59, 4-[3-(4-Carboxyphenyl)-4-[2-(hydroxyamino)-2-oxo-ethyl]-1H-pyrazol-5-yl]benzoic acid] | 56 | 56 | 116 | 128 |
| N#Cc1cccc(-c2n[nH]c(-c3ccccc3)c2CC(=O)NO)c1 [Example 55, 2-[3-(3-Cyanophenyl)-5-phenyl-1H-pyrazol-4-yl]ethanehydroxamic acid] | 5 | 5 | 335 | 346 |
| O=C(Cc1c(-c2ccc(C(=O)O)cc2)n[nH]c1-c1cccc(C(=O)O)c1)NO [Example 66, 3-[3-(4-Carboxyphenyl)-4-[2-(hydroxyamino)-2-oxo-ethyl]-1H-pyrazol-5-yl]benzoic acid] | 20 | 21 | 32 | 32 |
| N#Cc1ccc(-c2n[nH]c(-c3ccccc3)c2CC(=O)NO)cc1 [Example 56, 2-[3-(4-Cyanophenyl)-5-phenyl-1H-pyrazol-4-yl]ethanehydroxamic acid] | 14 | 14 | 995 | 1020 |
| O=C(Cc1c(C2CCCC2)n[nH]c1-c1ccccc1)NO [Example 45, 2-(3-Cyclopentyl-5-phenyl-1H-pyrazol-4-yl)ethanehydroxamic acid] | 6 | 6 | 320 | 327 |
| O=C(Cc1c(-c2cccc(-c3nnn[nH]3)c2)n[nH]c1-c1ccccc1)NO [Example 71, 2-[5-Phenyl-3-[3-(1H-tetrazol-5-yl)phenyl]-1H-pyrazol-4-yl]ethanehydroxamic acid] | 0.71 | 0.71 | 7 | 7 |
| O=C(Cc1c(-c2ccc(Cl)c(O)c2F)n[nH]c1-c1ccccc1)NO [Example 53, 2-[3-(4-Chloro-2-fluoro-3-hydroxy-phenyl)-5-phenyl-1H-pyrazol-4-yl]ethanehydroxamic acid] | 2 | 3 | 61 | 61 |
| O=C(Cn1c(-c2ccccc2C(=O)O)nc2ccccc21)NO [Example 17, 2-[1-[2-(Hydroxyamino)-2-oxo-ethyl]benzimidazol-2-yl]benzoic acid] | 1390 | 1430 | 13200 | 13700 |
